US8575201B2 (Boehringer Ingelheim International GmbH, priority 2010, dated 2013)

Tests used:
[1] = target: recombinant human FLAP protein (Homo sapiens (Human), UniProt P20292); assay: FLAP binding assay (Scintillation Proximity Assay, displacement of [125I]L-691,831); conditions: read-out: FLAP SPA IC50
Description: Assessment of Biological Properties 1. Binding Assay: Compounds are assessed for the ability to bind to FLAP in a binding assay that measures compound-specific displacement of an iodinated (^125I) FLAP inhibitor via a Scintillation Proximity Assay format (adapted from S. Charleson et al., Mol. Pharmacol., 1992, 41, 873-879). […] The cells are lysed with a Dounce homogenizer and the material is centrifuged at 10,000×g for 10 minutes. The supernatant is then collected and centrifuged at 100,000×g for 60 minutes. To prepare membrane protein for an assay, an aliquot of the 100,000×g pellet is resuspended in 1 ml of buffer A, Dounce homogenized, and finally subjected to polytron mixing (30 seconds). […] Mol. Pharmacol., 41, 873-879, 1992) and finally 50 μl of the bead/protein mixture. (final concentrations: beads, 200 μg/well; protein, 5 μg/well; […] The plates are shaken for 2 h before reading on a Microbeta plate reader.

[2] = tested on: synthesis of LTB4 in human whole blood; assay: Human whole blood LTB4 production inhibition assay; assay type: cell-based; conditions: calcimycin stimulated, read-out: hWB LTB4 IC50
Description: Compounds are additionally tested in a human whole blood assay to determine their ability to inhibit the synthesis of LTB4 in a cellular system. Compounds are combined with heparinized human whole blood and incubated for 15 minutes at 37° C. Calcimycin (20 μM final, prepared in phosphate-buffered saline, pH 7.4) is then added and the mixture is incubated for another 30 minutes at 37° C. The samples are centrifuged for 5 min at low speed (1500×g) and the plasma layer is removed. Plasma LTB4 concentrations are then measured using an antibody-based homogenous time-resolved fluorescence method (CisBio, Bedford, Mass.).

Sequence of recombinant human FLAP protein (P20292 whole entry): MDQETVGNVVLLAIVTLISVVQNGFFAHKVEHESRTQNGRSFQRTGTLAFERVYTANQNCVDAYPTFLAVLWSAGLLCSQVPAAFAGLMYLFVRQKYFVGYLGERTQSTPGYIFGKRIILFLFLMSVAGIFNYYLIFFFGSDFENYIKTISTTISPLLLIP

Structure (SMILES): Nc1ncc(-c2ccc(C3(c4noc(-c5ccc(S(N)(=O)=O)cc5)n4)CCC3)cn2)cn1 [Example 17, 4-(3-{1-[6-(2-aminopyrimidin-5-yl)pyridin-3-yl]cyclobutyl}-1,2,4-oxadiazol-5-yl)benzenesulfonamide]
- IC50 [1]: 8.7 nM
- IC50 [2]: > 5000 nM

Structure (SMILES): Nc1ncc(-c2ccc(C3(c4noc(-c5ccc(NCC6(O)CC6)nc5)n4)CCC3)cn2)cn1 [Example 18, 1-({[5-(3-{1-[6-(2-aminopyrimidin-5-yl)pyridin-3-yl]cyclobutyl}-1,2,4-oxadiazol-5-yl)pyridin-2-yl]amino}methyl)cyclo-propanol]
- IC50 [1]: 1.8 nM
- IC50 [2]: 95 nM

Structure (SMILES): Nc1ncc(-c2ccc(C3(c4noc(-c5cccc(S(N)(=O)=O)c5)n4)CCC3)cn2)cn1 [Example 19, 3-(3-{1-[6-(2-aminopyrimidin-5-yl)pyridin-3-yl]cyclobutyl}-1,2,4-oxadiazol-5-yl)benzenesulfonamide]
- IC50 [1]: 58 nM
- IC50 [2]: > 5000 nM

Structure (SMILES): Cn1cc(-c2nc(C3(c4ccc(-c5cnc(N)nc5)nc4)CCC3)no2)c(C(F)(F)F)n1 [Example 20, 5-[5-(1-{5-[1-methyl-3-(trifluoromethyl)-1H-pyrazol-4-yl]-1,2,4-oxadiazol-3-yl}cyclobutyl)pyridin-2-yl]pyrimidin-2-amine]
- IC50 [1]: 9.2 nM
- IC50 [2]: 530 nM

Structure (SMILES): CC(C)(CO)Nc1ccc(-c2nc(C3(c4ccc(-c5cnc(N)nc5)nc4)CCC3)no2)cn1 [Example 21, 2-{[5-(3-{1-[6-(2-aminopyrimidin-5-yl)pyridin-3-yl]cyclobutyl}-1,2,4-oxadiazol-5-yl)pyridin-2-yl]amino}-2-methylpropan-1-ol]
- IC50 [1]: 2.6 nM
- IC50 [2]: 250 nM

Structure (SMILES): Nc1ncc(-c2ccc(C3(c4noc(-c5ccc(OCCO)nc5)n4)CCC3)cn2)cn1 [Example 22, 2-{[5-(3-{1-[6-(2-aminopyrimidin-5-yl)pyridin-3-yl]cyclobutyl}-1,2,4-oxadiazol-5-yl)pyridin-2-yl]oxy}ethanol]
- IC50 [1]: 2.5 nM
- IC50 [2]: 140 nM

Structure (SMILES): Nc1ncc(-c2ccc(C3(c4noc(-c5cscn5)n4)CCC3)cn2)cn1 [Example 23, 5-(5-{1-[5-(1,3-thiazol-4-yl)-1,2,4-oxadiazol-3-yl]cyclobutyl}pyridin-2-yl)pyrimidin-2-amine]
- IC50 [1]: 26 nM
- IC50 [2]: 430 nM

Structure (SMILES): Nc1ncc(-c2ccc(C3(c4noc(-c5cocn5)n4)CCC3)cn2)cn1 [Example 24, 5-(5-{1-[5-(1,3-oxazol-4-yl)-1,2,4-oxadiazol-3-yl]cyclobutyl}pyridin-2-yl)pyrimidin-2-amine]
- IC50 [1]: 110 nM
- IC50 [2]: 1000 nM

Structure (SMILES): Nc1ncc(-c2ccc(C3(c4noc(-c5cnn6cccnc56)n4)CCC3)cn2)cn1 [Example 25, 5-(5-{1-[5-(pyrazolo[1,5-a]pyrimidin-3-yl)-1,2,4-oxadiazol-3-yl]cyclobutyl}pyridin-2-yl)pyrimidin-2-amine]
- IC50 [1]: 4 nM
- IC50 [2]: 46 nM

Structure (SMILES): Cn1cc(-c2nc(C3(c4ccc(-c5cnc(N)nc5)nc4)CCC3)no2)ccc1=O [Example 26, 5-(3-{1-[6-(2-aminopyrimidin-5-yl)pyridin-3-yl]cyclobutyl}-1,2,4-oxadiazol-5-yl)-1-methylpyridin-2(1H)-one]
- IC50 [1]: 110 nM
- IC50 [2]: 730 nM

Structure (SMILES): Nc1ncc(-c2ccc(C3(c4noc(-c5ccc6nccn6c5)n4)CCC3)cn2)cn1 [Example 27, 5-(5-{1-[5-(imidazo[1,2-a]pyridin-6-yl)-1,2,4-oxadiazol-3-yl]cyclobutyl}pyridin-2-yl)pyrimidin-2-amine]
- IC50 [1]: 12.4 nM
- IC50 [2]: 420 nM

Structure (SMILES): CC(CO)n1cc(-c2nc(C3(c4ccc(-c5cnc(N)nc5)nc4)CCC3)no2)cn1 (stereo not drawn) [Example 29, 2-[4-(3-{1-[6-(2-aminopyrimidin-5-yl)pyridin-3-yl]cyclobutyl}-1,2,4-oxadiazol-5-yl)-1H-pyrazol-1-yl]propan-1-ol]
- IC50 [1]: 35 nM
- IC50 [2]: 320 nM

Structure (SMILES): CC(C)(CO)n1cc(-c2nc(C3(c4ccc(-c5cnc(N)nc5)nc4)CCC3)no2)cn1 [Example 30, 2-[4-(3-{1-[6-(2-aminopyrimidin-5-yl)pyridin-3-yl]cyclobutyl}-1,2,4-oxadiazol-5-yl)-1H-pyrazol-1-yl]-2-methylpropan-1-ol]
- IC50 [1]: 33 nM
- IC50 [2]: 400 nM

Structure (SMILES): Nc1ncc(-c2ccc(C3(c4noc(-c5ccc(-n6ccnc6)nc5)n4)CCC3)cn2)cn1 [Example 31, 5-[5-(1-{5-[6-(1H-imidazol-1-yl)pyridin-3-yl]-1,2,4-oxadiazol-3-yl}cyclobutyl)pyridin-2-yl]pyrimidin-2-amine]
- IC50 [1]: 1.9 nM
- IC50 [2]: 300 nM

Structure (SMILES): Nc1ncc(-c2ccc(C3(c4noc(-c5ccc(O)cc5)n4)CCC3)cn2)cn1 [Example 32, 4-(3-{1-[6-(2-aminopyrimidin-5-yl)pyridin-3-yl]cyclobutyl}-1,2,4-oxadiazol-5-yl)phenol]
- IC50 [1]: 2.9 nM
- IC50 [2]: 140 nM

Structure (SMILES): Nc1ncc(-c2ccc(C3(c4noc(-c5ccc(NC(CO)CO)nc5)n4)CCC3)cn2)cn1 [Example 33, 2-{[5-(3-{1-[6-(2-aminopyrimidin-5-yl)pyridin-3-yl]cyclobutyl}-1,2,4-oxadiazol-5-yl)pyridin-2-yl]amino}propane-1,3-diol]
- IC50 [1]: 2.2 nM
- IC50 [2]: 2600 nM

Structure (SMILES): CN(C)C(=O)[C@@H]1CCCN1c1ccc(-c2nc(C3(c4ccc(-c5cnc(N)nc5)nc4)CCC3)no2)cn1 [Example 34, 1-[5-(3-{1-[6-(2-aminopyrimidin-5-yl)pyridin-3-yl]cyclobutyl}-1,2,4-oxadiazol-5-yl)pyridin-2-yl]-N,N-dimethyl-L-prolinamide]
- IC50 [1]: 40 nM
- IC50 [2]: 1800 nM

Structure (SMILES): Nc1ncc(-c2ccc(C3(c4noc(-c5ccc(N6CCC[C@H]6C(=O)O)nc5)n4)CCC3)cn2)cn1 [Example 35, 1-[5-(3-{1-[6-(2-aminopyrimidin-5-yl)pyridin-3-yl]cyclobutyl}-1,2,4-oxadiazol-5-yl)pyridin-2-yl]-L-proline]
- IC50 [1]: 43 nM
- IC50 [2]: > 5000 nM

Structure (SMILES): COC(=O)[C@@H]1CCCN1c1ccc(-c2nc(C3(c4ccc(-c5cnc(N)nc5)nc4)CCC3)no2)cn1 [Example 36, methyl 1-[5-(3-{1-[6-(2-aminopyrimidin-5-yl)pyridin-3-yl]cyclobutyl}-1,2,4-oxadiazol-5-yl)pyridin-2-yl]-L-prolinate]
- IC50 [1]: 5.9 nM
- IC50 [2]: 1400 nM

Structure (SMILES): Cn1cnnc1-c1nc(C2(c3ccc(-c4cnc(N)nc4)nc3)CCC2)no1 [Example 37, 5-(5-{1-[5-(4-methyl-4H-1,2,4-triazol-3-yl)-1,2,4-oxadiazol-3-yl]cyclobutyl}pyridin-2-yl)pyrimidin-2-amine]
- IC50 [1]: 110 nM
- IC50 [2]: 790 nM

Structure (SMILES): COC(=O)[C@H]1CNCCN1c1ccc(-c2nc(C3(c4ccc(-c5cnc(N)nc5)nc4)CCC3)no2)cn1 [Example 38, methyl (2R)-1-[5-(3-{1-[6-(2-aminopyrimidin-5-yl)pyridin-3-yl]cyclobutyl}-1,2,4-oxadiazol-5-yl)pyridin-2-yl]piperazine-2-carboxylate]
- IC50 [1]: 3.2 nM
- IC50 [2]: 75 nM

Structure (SMILES): COC(=O)[C@H]1CN(c2ccc(-c3nc(C4(c5ccc(-c6cnc(N)nc6)nc5)CCC4)no3)cn2)CCN1 [Example 40, methyl (2R)-4-[5-(3-{1-[6-(2-aminopyrimidin-5-yl)pyridin-3-yl]cyclobutyl}-1,2,4-oxadiazol-5-yl)pyridin-2-yl]piperazine-2-carboxylate]
- IC50 [1]: 3.3 nM
- IC50 [2]: 92 nM

Structure (SMILES): Nc1ncc(-c2ccc(C3(c4noc(-c5ccc(N6CCN[C@H](C(=O)O)C6)nc5)n4)CCC3)cn2)cn1 [Example 41, (2S)-4-[5-(3-{1-[6-(2-aminopyrimidin-5-yl)pyridin-3-yl]cyclobutyl}-1,2,4-oxadiazol-5-yl)pyridin-2-yl]piperazine-2-carboxylic acid]
- IC50 [1]: 7.7 nM
- IC50 [2]: > 5000 nM

Structure (SMILES): Nc1ncc(-c2ccc(C3(c4noc(-c5ccc(N6CCN[C@@H](C(=O)O)C6)nc5)n4)CCC3)cn2)cn1 [Example 42, (2R)-4-[5-(3-{1-[6-(2-aminopyrimidin-5-yl)pyridin-3-yl]cyclobutyl}-1,2,4-oxadiazol-5-yl)pyridin-2-yl]piperazine-2-carboxylic acid]
- IC50 [1]: 7.7 nM
- IC50 [2]: > 5000 nM

Structure (SMILES): Nc1ncc(-c2ccc(C3(c4noc(-c5ccc(N6CC[C@@H](O)C6)nc5)n4)CCC3)cn2)cn1 [Example 43, (3R)-1-[5-(3-{1-[6-(2-aminopyrimidin-5-yl)pyridin-3-yl]cyclobutyl}-1,2,4-oxadiazol-5-yl)pyridin-2-yl]pyrrolidin-3-ol]
- IC50 [1]: 1.2 nM
- IC50 [2]: 170 nM

Structure (SMILES): C[C@@H](O)CNc1ccc(-c2nc(C3(c4ccc(-c5cnc(N)nc5)nc4)CCC3)no2)cn1 [Example 44, (2R)-1-{[5-(3-{1-[6-(2-aminopyrimidin-5-yl)pyridin-3-yl]cyclobutyl}-1,2,4-oxadiazol-5-yl)pyridin-2-yl]amino}propan-2-ol]
- IC50 [1]: 2.7 nM
- IC50 [2]: 100 nM

Structure (SMILES): Nc1ncc(-c2ccc(C3(c4noc(-c5ccc(N6CCC[C@@H]6CO)nc5)n4)CCC3)cn2)cn1 [Example 45, {(2R)-1-[5-(3-{1-[6-(2-aminopyrimidin-5-yl)pyridin-3-yl]cyclobutyl}-1,2,4-oxadiazol-5-yl)pyridin-2-yl]pyrrolidin-2-yl}methanol]
- IC50 [1]: 3.1 nM
- IC50 [2]: 750 nM
